Values of other authors in US20050131071A1, “Orodispersible pharmaceutical composition of agomelatine” (priority 2003, published 2005).

Details: humans; oral route in relation to the parenteral route

bioavailability by the oral route: very low
SMILES: COc1ccc2cccc(CCNC(C)=O)c2c1 [agomelatine, N-[2-(7-methoxy-1-naphthyl)ethyl]acetamide]
